In patent US8633242B2, “Benzylidene indanones and processes for preparation and use thereof” (Council of Scientific and Industrial Research, priority 2011, dated 2014):
“Also recorded” adds a separate entry of the source.

Tests used:
tubulin protein = assay: In-vitro tubulin polymerisation inhibition assay; format: biochemical
Experimental: The tubulin polymerization experiment was performed using ‘assay kit’ (Cytoskeleton USA) following manufacturer's protocol based on the procedure described by of Shelanski et al. (1973) and Lee et al. (1977). Briefly, tubulin protein (3 mg/mL) in tubulin polymerization buffer (80 mM PIPES, pH 6.9, 2 mM MgCl2, 0.5 mM EGTA, 1 mM GTP and 15% glycerol) was placed in pre-warmed 96-well microtiter plates at 37° C. in the presence of test compounds with variable concentrations. All samples were mixed well and polymerization was monitored kinetically at 340 nm every min for 1 h using a Spectramax plate reader. Podophyllotoxin and etoposide were used as positive controls and DMSO as negative control. The IC50 value was determined from dose-dependent analysis and is defined as the concentration that inhibits the rate of polymerization by 50%.
Podophyllotoxin and etoposide, standard tubulin polymerisation inhibitors were used as positive controls.

MCF-7 (Breast cancer) = assay: Sulphorhodamine B cytotoxicity assay, MCF-7; format: cell-based, human
Experimental: (§1) The benzylidene analogues were evaluated by Sulphorhodamine B Assay as per reported method [Skehan et al., J. Natl. Cancer Inst. 1990, 82, 1107]. The human cancer cell lines procured from National Cancer institute, Frederick, U.S.A. were used in present study. Cells were grown in tissue culture flasks in complete growth medium (RPMI-1640 medium with 2 mM glutamine, pH 7.4 supplemented with 10% fetal bovine serum, 100 μg/ml streptomycin and 100 units/ml penicillin) in a carbon dioxide incubator (37° C., 5% CO2, 90% RH). The cells at subconfluent stage were harvested from the flask by treatment with trypsin (0.05% in PBS (pH 7.4) containing 0.02% EDTA). Cells with viability of more than 98%, as determined by trypan blue exclusion, were used for determination of cytotoxicity. The cell suspension required concentration of cells was prepared in complete growth medium. Stock solution of 2×10^−2 M of compounds were prepared in DMSO and further dilution was carried out complete growth medium containing 50 μg/ml of gentamycin to obtained working test solution of required concentration. In vitro cytotoxicity against various human cancer cell lines was determined using 96-well cell culture plates. The 100 μl of cell suspension was added to each well of the 96-well cell culture plates. The cells were allowed to grow in CO2 incubator (37° C., 5% CO2, 90% RH) for 24 hours. The test materials in complete growth medium (100 μl) were added after 24 hours incubation to the wells containing cell suspension. The plates were further incubated for 48 hours (37° C. in an atmosphere of 5% CO2 and 90% relative humidity) in a carbon dioxide incubator after addition of test material and then the cell growth was stopped by gently layering trichloroacetic acid (50% TCA, 50 μl) on top of the medium in all the wells. The plates were incubated at 4° C. for one hour to fix the cells attached to the bottom of the wells. The liquid of all the wells was gently pipetted out and discarded. The plates were washed five times with distilled water to remove TCA, growth medium low molecular weight metabolites, serum proteins etc. and air-dried. Cell growth was measured by staining with sulforhodamine B dye. The adsorbed dye was dissolved in Tris-HCl Buffer (100 μl/well, 0.01M, pH 10.4) and plates were gently stirred for 10 minutes on a mechanical stirrer. The optical density (OD) was recorded on ELISA reader at 540 nm. 5-Fluorouracil, Paclitaxel (Taxol), Mitomycin-c and Adriamycin were used as positive controls.

THP-1 (Leukemia) = assay: Sulphorhodamine B cytotoxicity assay, THP-1; format: cell-based, human
Experimental: as §1

PC-3 (prostate) = assay: Sulphorhodamine B cytotoxicity assay, PC-3; format: cell-based, human; design: key to Human cancer cell lines IC50, PC-3 (prostate): Inactive: inactive, if IC50 > 100 μM; conditions: SRB assay, 48 hours incubation
Experimental: as §1

HeLa (Cervix) = assay: Sulphorhodamine B cytotoxicity assay, HeLa; format: cell-based, human; conditions: Homo sapiens, HeLa; SRB assay, 48 hours incubation; read-out: Human cancer cell lines IC50, HeLa (Cervix)
Experimental: as §1

DU-145 (prostate) = assay: Sulphorhodamine B cytotoxicity assay, DU-145; format: cell-based, human; design: key to Human cancer cell lines IC50, DU-145 (prostate): Inactive: inactive, if IC50 > 100 μM; conditions: SRB assay, 48 hours incubation
Experimental: as §1

A549 (Lung) = assay: Sulphorhodamine B cytotoxicity assay, A549; format: cell-based, human; conditions: Homo sapiens, A549; SRB assay, 48 hours incubation; read-out: Human cancer cell lines IC50, A549 (Lung)
Experimental: as §1

COc1cc(C2/C(=C/c3ccc4c(c3)OCO4)C(=O)c3cc(OC)c(OC)c(OC)c32)cc(OC)c1OC (racemic) [Compound 8, 2-(3,4-Methylenedioxybenzylidine), 3-(3,4,5-trimethoxyphenyl), 4,5,6-trimethoxyindanone]
inhibition of tubulin polymerisation, in words (tubulin protein): tubulin polymerisation inhibition; also recorded: strong inhibition | IC50 (tubulin protein; read-out: Tubulin polymerisation inhibition IC50, tubulin 3 mg/mL, 37° C., 340 nm, 1 h): 0.63 µM | anticancer activity against human breast cancer cells (MCF-7), in words (MCF-7 (Breast cancer)): better activity; also recorded: potent anticancer activity | IC50 (MCF-7 (Breast cancer); Homo sapiens, MCF7, SRB assay, 48 hours incubation, read-out: Human cancer cell lines IC50, MCF-7 (Breast cancer)): 0.01 µM | activity against leukemia cell lines (THP), in words (THP-1 (Leukemia)): potent activity | IC50 (THP-1 (Leukemia); Homo sapiens, THP-1, SRB assay, 48 hours incubation, read-out: Human cancer cell lines IC50, THP-1 (Leukemia)): 4.9 µM | Human cancer cell lines IC50, PC-3 (prostate) (PC-3 (prostate)): Inactive | IC50 (HeLa (Cervix)): 23 µM | Human cancer cell lines IC50, DU-145 (prostate) (DU-145 (prostate)): Inactive | IC50 (A549 (Lung)): 11 µM
